Test results from the NIST ThermoML archive (doi:10.1021/je060189f).

Assay: mn = molality of the nth substance listed, in mol/kg
Conditions: 101 kPa, Liquid

O=C(O)CCCCC(=O)O [1,6-hexanedioic acid] + O
Conditions | mass density [kg/m3] | viscosity [mPa·s]
293.15 K, m1 = 0.00708 | 998.48 | 1.006
293.15 K, m1 = 0.01399 | 998.72 | 1.008
293.15 K, m1 = 0.02122 | 999.01 | 1.01
293.15 K, m1 = 0.02857 | 999.2 | 1.014
293.15 K, m1 = 0.05669 | 1000.16 | 1.023
293.15 K, m1 = 0.08401 | 1000.95 | 1.035
293.15 K, m1 = 0.1125 | 1001.81 | 1.047
293.15 K, m1 = 0.143 | 1002.78 | 1.06
298.15 K, m1 = 0.01287 | 997.49 | –
298.15 K, m1 = 0.0154 | 997.52 | 0.8959
298.15 K, m1 = 0.0257 | 997.83 | 0.8985
298.15 K, m1 = 0.02702 | 997.91 | –
298.15 K, m1 = 0.03133 | 998.11 | 0.9017
298.15 K, m1 = 0.03789 | 998.27 | 0.9028
298.15 K, m1 = 0.04282 | 998.42 | –
298.15 K, m1 = 0.0455 | – | 0.905
298.15 K, m1 = 0.05256 | – | 0.9074
298.15 K, m1 = 0.05544 | 998.81 | –
298.15 K, m1 = 0.05776 | – | 0.9102
298.15 K, m1 = 0.06453 | – | 0.9122
298.15 K, m1 = 0.06825 | 999.2 | –
298.15 K, m1 = 0.06989 | 999.21 | 0.9136
298.15 K, m1 = 0.08417 | 999.71 | –
298.15 K, m1 = 0.08956 | – | 0.9197
298.15 K, m1 = 0.09767 | 1000.15 | –
298.15 K, m1 = 0.1088 | 1000.49 | –
298.15 K, m1 = 0.1136 | 1000.66 | 0.9285
298.15 K, m1 = 0.1266 | 1001.01 | –
298.15 K, m1 = 0.1377 | 1001.33 | –
303.15 K, m1 = 0.01287 | 996.07 | –
303.15 K, m1 = 0.0154 | 996.08 | 0.8022
303.15 K, m1 = 0.0257 | 996.56 | 0.806
303.15 K, m1 = 0.02702 | 996.51 | –
303.15 K, m1 = 0.03133 | 996.64 | 0.8073
303.15 K, m1 = 0.03789 | 996.83 | 0.8085
303.15 K, m1 = 0.04282 | 996.99 | –
303.15 K, m1 = 0.0455 | – | 0.8116
303.15 K, m1 = 0.05256 | – | 0.8134
303.15 K, m1 = 0.05544 | 997.38 | –
303.15 K, m1 = 0.05776 | – | 0.8148
303.15 K, m1 = 0.06453 | – | 0.8157
303.15 K, m1 = 0.06825 | 997.72 | –
303.15 K, m1 = 0.06989 | 997.73 | 0.8172
303.15 K, m1 = 0.08417 | 998.28 | –
303.15 K, m1 = 0.08956 | – | 0.8233
303.15 K, m1 = 0.09767 | 998.74 | –
303.15 K, m1 = 0.1088 | 999.01 | –
303.15 K, m1 = 0.1136 | 999.1 | 0.8297
303.15 K, m1 = 0.1266 | 999.56 | –
303.15 K, m1 = 0.1377 | 999.93 | –
308.15 K, m1 = 0.01287 | 994.41 | –
308.15 K, m1 = 0.0154 | 994.45 | 0.7229
308.15 K, m1 = 0.0257 | 994.79 | 0.7255
308.15 K, m1 = 0.02702 | 994.89 | –
308.15 K, m1 = 0.03133 | 994.96 | 0.7275
308.15 K, m1 = 0.03789 | 995.17 | 0.7285
308.15 K, m1 = 0.04282 | 995.34 | –
308.15 K, m1 = 0.0455 | – | 0.7309
308.15 K, m1 = 0.05256 | – | 0.7323
308.15 K, m1 = 0.05544 | 995.71 | –
308.15 K, m1 = 0.05776 | – | 0.7334
308.15 K, m1 = 0.06453 | – | 0.7353
308.15 K, m1 = 0.06825 | 996.07 | –
308.15 K, m1 = 0.06989 | 996.09 | 0.7362
308.15 K, m1 = 0.08417 | 996.55 | –
308.15 K, m1 = 0.08956 | – | 0.7406
308.15 K, m1 = 0.09767 | 996.95 | –
308.15 K, m1 = 0.1088 | 997.25 | –
308.15 K, m1 = 0.1136 | 997.47 | 0.7457
308.15 K, m1 = 0.1266 | 997.79 | –
308.15 K, m1 = 0.1377 | 998.16 | –
313.15 K, m1 = 0.01287 | 992.54 | –
313.15 K, m1 = 0.0154 | 992.58 | 0.6559
313.15 K, m1 = 0.0257 | 992.89 | 0.6585
313.15 K, m1 = 0.02702 | 993.01 | –
313.15 K, m1 = 0.03133 | 993.19 | 0.66
313.15 K, m1 = 0.03789 | 993.29 | 0.6612
313.15 K, m1 = 0.04282 | 993.45 | –
313.15 K, m1 = 0.0455 | – | 0.6625
313.15 K, m1 = 0.05256 | – | 0.6639
313.15 K, m1 = 0.05544 | 993.89 | –
313.15 K, m1 = 0.05776 | – | 0.6643
313.15 K, m1 = 0.06453 | – | 0.6663
313.15 K, m1 = 0.06825 | 994.21 | –
313.15 K, m1 = 0.06989 | 994.21 | 0.6674
313.15 K, m1 = 0.08417 | 994.66 | –
313.15 K, m1 = 0.08956 | – | 0.6708
313.15 K, m1 = 0.09767 | 995.03 | –
313.15 K, m1 = 0.1088 | 995.33 | –
313.15 K, m1 = 0.1136 | 995.47 | 0.6754
313.15 K, m1 = 0.1266 | 995.88 | –
313.15 K, m1 = 0.1377 | 996.19 | –

O [water] + O=C(O)CCCCC(=O)O
m2 = 0
Conditions | viscosity [mPa·s]
293.15 K | 1.002
298.15 K | 0.8904
303.15 K | 0.7975
308.15 K | 0.7194
313.15 K | 0.653
